From patent US10463644B2, “Uses of sesquiterpene lactone compounds and their derivatives in drugs preparation” (ACCENDATECH, priority 2013, dated 2019)
Where two headings read alike, the source gives them in different places.

Columns and labels:
[1] = test system: IL-1β secreted by synoviocyte; assay: Content of IL-1β in culture supernatant of synoviocyte of RA model rats given test compound; type: in vivo; conditions: rat RA model, dose 30 mg/kg.2d; normal control 0.16 ± 0.034, NaCl 0.49 ± 0.136
In short: (§1)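 Read-out: TNF-α, PGE2 and IL-1β levels in supernatant from cultured synoviocytes. Cells came from RA model rats treated with compound at 30 mg/kg.2d, and from NaCl-treated and normal control rats.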

[2] = test system: PGE2 secreted by synoviocyte; assay: Content of PGE2 in culture supernatant of synoviocyte of RA model rats given test compound; type: in vivo; conditions: rat RA model, dose 30 mg/kg.2d; normal control 8.34 ± 1.29, NaCl 32.44 ± 10.32
In short: as §1

[3] = test system: cancer stem cells; assay: Survival rate of cancer stem cells after test compound is added (flow cytometry, Annexin V-FITC/PI, clinical specimen); type: cell-based, patient; conditions: Homo sapiens, 18 h
In short: (§2)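 Survival was determined in clinical specimens after an 18 h compound treatment, using Annexin V-FITC/PI apoptosis staining and flow cytometry.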

[4] = test system: cancer cells; assay: Survival rate of cancer cells after test compound is added (flow cytometry, Annexin V-FITC/PI, clinical specimen); type: cell-based, patient; conditions: Homo sapiens, 18 h, read-out: Survival rate (%) All cells (Stem cells and ordinary cells)
In short: as §2

[5] = test system: normal cells; assay: Survival rate of normal cells after test compound is added (flow cytometry, Annexin V-FITC/PI); type: cell-based; conditions: 18 h
In short: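 Steps: density-gradient isolation of mononuclear cells from fresh or cryopreserved clinical samples; 18-hour compound exposure at 1×10^6 cells/mL; staining for stem-cell surface markers, then Annexin V-FITC and PI; flow cytometric apoptosis analysis.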

[6] = Head and neck squamous cell carcinomas
[7] = read-out: Survival rate (%) All cells (Stem cells and ordinary cells)
[8] = read-out: Survival rate (%) Stem cells

## C=C1C(=O)O[C@H]2[C@H]1CC[C@]1(C)O[C@@]13CC[C@@](C)(O)[C@H]23 [Compound 24]
[1]
  Content of IL-1β in culture supernatant of synoviocyte (x ± s): 0.37 ± 0.051 ng/mL
[2]
  Content of PGE2 in culture supernatant of synoviocyte (x ± s): 23.63 ± 1.35 ng/mL
[3]; AML
  viability at 10 µM: 48%
  viability at 20 µM: 39%
[3]; Brain glioma
  viability at 10 µM: 52%
  viability at 20 µM: 42%
[3]; Brain tumor
  viability at 10 µM: 66%
  viability at 20 µM: 54%
[3]; Breast cancer
  viability at 10 µM: 54%
  viability at 20 µM: 47%
[3]; CLL
  viability at 10 µM: 48%
  viability at 20 µM: 39%
[3]; CML
  viability at 10 µM: 51%
  viability at 20 µM: 46%
[3]; Children hepatoblastoma
  viability at 10 µM: 67%
  viability at 20 µM: 57%
[3]; Colon adenocarcinoma
  viability at 10 µM: 58%
  viability at 20 µM: 49%
[3]; Colorectal cancer
  viability at 10 µM: 66%
  viability at 20 µM: 55%
[3]; Gastric cancer
  viability at 10 µM: 51%
  viability at 20 µM: 39%
[3]; Gastrointestinal tumor
  viability at 10 µM: 56%
  viability at 20 µM: 51%
[3]; Glioma
  viability at 10 µM: 69%
  viability at 20 µM: 60%
[3]; [6]
  viability at 10 µM: 64%
  viability at 20 µM: 57%
[3]; Laryngeal cancer
  viability at 10 µM: 65%
  viability at 20 µM: 55%
[3]; Liver cancer
  viability at 10 µM: 74%
  viability at 20 µM: 61%
[3]; Lung adenocarcinoma
  viability at 10 µM: 68%
  viability at 20 µM: 55%
[3]; Lung cancer
  viability at 10 µM: 61%
  viability at 20 µM: 54%
[3]; Malignant melanoma
  viability at 10 µM: 81%
  viability at 20 µM: 76%
[3]; Nasopharynx cancer
  viability at 10 µM: 57%
  viability at 20 µM: 48%
[3]; Ovarian cancer
  viability at 10 µM: 57%
  viability at 20 µM: 45%
[3]; Pancreatic cancer
  viability at 10 µM: 55%
  viability at 20 µM: 49%
[3]; Prostate cancer
  viability at 10 µM: 61%
  viability at 20 µM: 51%
[3]; Retinoblastoma
  viability at 10 µM: 62%
  viability at 20 µM: 54%
[3]; Skin cancer
  viability at 10 µM: 46%
  viability at 20 µM: 39%
[4]; AML
  viability at 10 µM: 59%
  viability at 20 µM: 48%
[4]; Brain glioma
  viability at 10 µM: 65%
  viability at 20 µM: 53%
[4]; Brain tumor
  viability at 10 µM: 74%
  viability at 20 µM: 69%
[4]; Breast cancer
  viability at 10 µM: 77%
  viability at 20 µM: 58%
[4]; CLL
  viability at 10 µM: 67%
  viability at 20 µM: 48%
[4]; CML
  viability at 10 µM: 69%
  viability at 20 µM: 51%
[4]; Children hepatoblastoma
  viability at 10 µM: 75%
  viability at 20 µM: 68%
[4]; Colon adenocarcinoma
  viability at 10 µM: 66%
  viability at 20 µM: 57%
[4]; Colorectal cancer
  viability at 10 µM: 78%
  viability at 20 µM: 67%
[4]; Gastric cancer
  viability at 10 µM: 66%
  viability at 20 µM: 48%
[4]; Gastrointestinal tumor
  viability at 10 µM: 72%
  viability at 20 µM: 62%
[4]; Glioma
  viability at 10 µM: 78%
  viability at 20 µM: 74%
[4]; [6]
  viability at 10 µM: 76%
  viability at 20 µM: 68%
[4]; Laryngeal cancer
  viability at 10 µM: 75%
  viability at 20 µM: 66%
[4]; Liver cancer
  viability at 10 µM: 82%
  viability at 20 µM: 72%
[4]; Lung adenocarcinoma
  viability at 10 µM: 78%
  viability at 20 µM: 64%
[4]; Lung cancer
  viability at 10 µM: 72%
  viability at 20 µM: 66%
[4]; Malignant melanoma
  viability at 10 µM: 88%
  viability at 20 µM: 86%
[4]; Nasopharynx cancer
  viability at 10 µM: 64%
  viability at 20 µM: 59%
[4]; Ovarian cancer
  viability at 10 µM: 68%
  viability at 20 µM: 61%
[4]; Pancreatic cancer
  viability at 10 µM: 68%
  viability at 20 µM: 62%
[4]; Prostate cancer
  viability at 10 µM: 75%
  viability at 20 µM: 62%
[4]; Retinoblastoma
  viability at 10 µM: 82%
  viability at 20 µM: 69%
[4]; Skin cancer
  viability at 10 µM: 62%
  viability at 20 µM: 47%
[5]; [7]
  viability at 10 µM: 93%
  viability at 20 µM: 92%
[5]; [8]
  viability at 10 µM: 92%
  viability at 20 µM: 90%
